“Also recorded” adds a separate entry of the source. Marks after values point to notes of the source that are not given here. Bridge positions count the residues as written; N and C are the ends. Square brackets hold non-standard residues; d marks the D form. Ends that are not written are not given here. Peptide text beside a SMILES is read from it. Phe(4-NH2) = Nc1ccc(C[C@H](N)C(=O)O)cc1
Key:
[1] = test system: abdominal skin of C.R rats; assay: Rat skin test: intradermal injection of peptide, then intradermal compound 48/80 or vehicle, wheal area; assay type: in vivo
In short: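 Peptide was injected intradermally (20 μl, in 10% DMSO/saline) at 20 or 200 μg; after 0.5 or 1 h, 20 μl compound 48/80 (0.1 mg/ml) or vehicle was injected intradermally at the same site. Wheal outlines were traced and areas measured by planimeter, reported as mean wheal area.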

[2] = test system: purified rat peritoneal mast cells; assay type: cell-based
In short: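 Intact purified rat peritoneal mast cells were incubated at 37° C with increasing peptide concentrations, then stimulated with 5 μg/ml compound 48/80 (maximal release). Histamine secretion is expressed as % of total cellular histamine after subtracting spontaneous release, as the mean of duplicates.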

[3] = test system: purified rat peritoneal mast cells; assay: Histamine secretion from intact mast cells incubated with peptide alone (secretagogue side effect); conditions: for Secretagogue (histamine secretion following incubation of mast cell with different concentrations of each peptide): no allergen; for histamine secretion from mast cells on incubation with increasing concentrations of peptide alone: no additional allergen
Protocol: Mast cells from the peritoneal cavity of C.R rats were isolated in Tyrode buffer (137 mM NaCl, 2.7 mM KC1, 1 mM MgCl2, 0.4 mM NaH2PO4, 20 mM Hepes, 1.0 mM CaCl2, 5.6 mM glucose, 1 mg/ml BSA, pH 7.2) and purified over a Ficoll gradient. A suspension of washed peritoneal cells was placed over a cushion of 30% Ficoll 400 (Pharmacia Biotech.) in buffered Saline containing 0.1% BSA; and centrifuged at 150O×g for 15 min. The purity of mast cells recovered from the bottom of the tube was >90%, as assessed by toluidine blue staining.
Purified mast cells (duplicated of 10^5 cells/0.5 ml) were incubated in Tyrode buffer with buffer or with desired concentrations of the indicated peptide for 2 h. at. 37° C. Histamine secretion was subsequently stimulated by the indicated concentration of compound 48/80 (Sigma) dissolved in Tyrode buffer. Incubation with compound 48/80 was carried out for 20 mm.in at 37° C. The reaction was terminated by placing the tubes on ice. The cells were sedimented by centrifugation at 150×g for 5 mm.in and the supernatants were collected. The amount of histamine release was determined as previously described (Aridor et al., 1990). Briefly, cell pellets were lysed using 0.1N NaOH and the volume of each sample was adjusted to 0.5 ml by H2O. Histamine content was assayed using the o-phtalaldehyde (OPT) fluorimetric method (Shore et al., 1959). Aliquots of 0.4 ml from the supernatants and cell lysates were incubated with 1.6 ml H20, 0.4 ml 1N NaOH and 0.1 ml of 10 mg/l ml OPT in methanol, for 4 min at room temperature. The reaction was terminated by the addition of 0.2 ml 3N HCl. Samples were centrifuged at 150×g for 5 min. and 0.2 ml samples were transferred to a 96 well plate. The histamine spectrofluorometric assay was run in microplates using a microplates reader (FL-600, Biotek instruments Winooski, Vt., USA). Samples were excited by light at 340 nm and read at 440 nm. Histamine release was calculated as the percentage of total histamine content (supernatant/pellet+supernatant) in each sample. Each data point represents the average of duplicate measurements. The spontaneously released histamine was subtracted.

[4] = Peptide solubility (remarks; assay medium, Tyrode buffer); assay type: physicochemical
[5] = test system: abdominal skin of C.R rats; assay: Rat skin test: topical application of peptide, then intradermal compound 48/80 or saline, wheal area; assay type: in vivo
Protocol: The hair of the abdominal area of C.R rats was carefully removed with an electric clipper and a depilatory cream. In each animal the abdominal area was divided to six equal zones that were marked by pen. Each zone was either subjected to peptide treatment or served as a control. In the first set of experiments, the peptide was topically applied as follows: 36 μl of peptide solution at the indicated concentration (dissolved in 72% DMSO in saline) was applied on desired abdominal area. In the second set of experiments, the peptide was injected intradermally as follows: 20 μl of peptide solution at different concentrations (dissolved in 10% DMSO in saline) was injected intradermally to an indicated abdominal area using a 27-gauge sterile needle.
Skin tests were performed 0.5, 1 or 2 hours following application of the peptide. Skin tests were performed by injecting intradermally 20 μl of the allergen (0.1 mg/ml compound 48/80 dissolved in saline) or saline alone, into the center of each marked area on the abdominal skin using a 27-gauge sterile needle. The allergic response was monitored by outlining with a marker the wheals which developed in response to allergen or saline treatment.
To quantitate the skin test results, the marker signs were transferred onto paper with scotch tape. The areas of the wheals were outlined and calculated by a computerized planimeter (Hewlett-Packard), as previously described (Sussman et al., 1982).

[6] = test system: mice; assay: IgE-independent mouse conjunctivitis induced by compound 48/80, clinical score; assay type: in vivo; parameters: scale not given here; conditions: drug 2% followed by vehicle
Protocol: A murine model was chosen as an in vivo model of IgE-independent human conjunctivitis, induced by a basic secretagogue.
Six groups of mice were topically treated as described in Table 19. The first application was installed 4 times (24 hours, 21 hours, 18 hours and 30 minutes) prior to the second application.
Clinical evaluation of allergic conjunctivitis was conducted in a blind fashion by determining the extent and intensity of lid edema, chemosis, erythema and tearing.

[7] = intradermal peptide 1 mg/ml, 0.5 hour before, vehicle instead of compound 48/80
[8] = intradermal peptide 1 mg/ml, 1 hour before, vehicle instead of compound 48/80
[9] = intradermal peptide 10 mg/ml, 0.5 hour before, vehicle instead of compound 48/80
[10] = intradermal peptide 10 mg/ml, 1 hour before, vehicle instead of compound 48/80

Molecule: CC(C)C[C@@H]1NC(=O)CNC(=O)[C@H](CS)NC(=O)[C@H](CCC(=O)O)NC(=O)[C@H](CCCCN)NC(=O)[C@H](CC(C)C)NC(=O)[C@H](CC(N)=O)NC(=O)[C@H](CC(N)=O)NC(=O)[C@@H](NC(=O)[C@@H]2CCCN2C(=O)[C@H](C)NC(=O)[C@H](CC(C)C)NC(=O)[C@H](CC(C)C)NC(=O)[C@H](C)NC(=O)[C@H](CC(C)C)NC(=O)[C@H](CC(C)C)NC(=O)[C@@H](NC(=O)[C@H](C)NC(=O)[C@@H]2CCCN2C(=O)[C@H](CC(C)C)NC(=O)[C@H](CC(C)C)NC(=O)[C@H](C)NC(=O)[C@@H](NC(=O)[C@H](C)NC(=O)[C@H](C)N)C(C)C)C(C)C)CCCCNC(=O)[C@H](Cc2ccc(O)cc2)NC1=O [Peptide 2-Cyc] (H-AAVALLPAVLLALLAPKNNLKECGLY; lactam 17-C; N-terminus assumed)
- block of compound 48/80 induced allergic reaction in vivo, rat skin ([1]; intradermal peptide): less effective than peptide 2
- Mean Wheal Area ± STD, Compound 48/80 ([1]; intradermal peptide 1 mg/ml, 0.5 hour before allergic induction): 104.4 ± 45.8 (n = 5) mm^2
- Mean Wheal Area ± STD, Vehicle [1, 7]: 61.4 ± 30.9 (n = 5) mm^2
- Mean Wheal Area ± STD, Compound 48/80 ([1]; intradermal peptide 1 mg/ml, 1 hour before allergic induction): 84.5 ± 29.7 (n = 6) mm^2
- Mean Wheal Area ± STD, Vehicle [1, 8]: 54.6 ± 12.1 (n = 6) mm^2
- Mean Wheal Area ± STD, Compound 48/80 ([1]; intradermal peptide 10 mg/ml, 0.5 hour before allergic induction): 82.6 ± 50.6 (n = 5) mm^2
- Mean Wheal Area ± STD, Vehicle [1, 9]: 58.8 ± 29.6 (n = 5) mm^2
- Mean Wheal Area ± STD, Compound 48/80 ([1]; intradermal peptide 10 mg/ml, 1 hour before allergic induction): 75.3 ± 28.4. (n = 6) mm^2
- Mean Wheal Area ± STD, Vehicle [1, 10]: 45.0 ± 7.9 (n = 6) mm^2
- reduction of compound 48/80 induced allergic reaction ([1]; intradermal peptide 0.5 hour before allergic induction): significant decrease in wheal area
- reduction of compound 48/80 induced allergic reaction ([1]; intradermal peptide, lower dose or 1 hour before allergic induction): had no effect
- Inhibitor (degree of inhibition of histamine secretion from mast cells) ([2]; Table 1, incubation with different concentrations of each peptide, then induction of the allergic reaction): + (+ Poor inhibitor (<50% inhibition))
- effect on compound 48/80 induced histamine secretion ([2]; range of peptide concentrations tested): only limited potential to block compound 48/80 induced histamine secretion
- side effects of histamine secretion in mast cells, peptide alone ([3]; at a concentration of 100 μg/ml): only minor side effects of histamine secretion
- solubility [4]: very poor solubility

Molecule: VTVLALGALAGVGVGKNNLKECGLY [Peptide 1]
- Secretagogue (histamine secretion following incubation of mast cell with different concentrations of each peptide) ([3]; Table 9, peptide alone): +
- histamine secretion from mast cells on incubation with increasing concentrations of peptide alone [3]: resulted in histamine secretion
- stimulatory effect on histamine secretion ([3]; peptide alone, concentration range of up to 400 p.g/ml (FIG. 1A)): hardly any stimulatory effect
- solubility [4]: no solubility problems

Molecule: CC(C)C[C@H](NC(=O)CNC(=O)[C@H](CS)NC(=O)[C@H](CCC(=O)O)NC(=O)[C@H](CCCCN)NC(=O)[C@H](CC(C)C)NC(=O)[C@H](CC(N)=O)NC(=O)[C@H](CC(N)=O)NC(=O)[C@H](CCCCN)NC(=O)[C@@H]1CCCN1C(=O)[C@H](C)NC(=O)[C@H](CC(C)C)NC(=O)[C@H](CC(C)C)NC(=O)[C@H](C)NC(=O)[C@H](CC(C)C)NC(=O)[C@H](CC(C)C)NC(=O)[C@@H](NC(=O)[C@H](C)NC(=O)[C@@H]1CCCN1C(=O)[C@H](CC(C)C)NC(=O)[C@H](CC(C)C)NC(=O)[C@H](C)NC(=O)[C@@H](NC(=O)[C@H](C)NC(=O)[C@H](C)N)C(C)C)C(C)C)C(=O)N[C@@H](Cc1ccc(N)cc1)C(=O)O [WALL005] (H-AAVALLPAVLLALLAPKNNLKECGL[Phe(4-NH2)]-OH; N-terminus and C-terminus assumed)
- Secretagogue (histamine secretion following incubation of mast cell with different concentrations of each peptide) ([3]; Table 9, peptide alone): +
- histamine secretion from mast cells on incubation with increasing concentrations of peptide alone [3]: resulted in histamine secretion
- solubility [4]: severe solubility problems

Molecule: AAVALLPAVLLALLAPKNNLKECGLY [Peptide 2]
- Mean Wheal Area ± STD, Vehicle ([1]; Tables 17A-B, column head '0.1' (no unit), 0.5 hr prior to allergy induction): 57.0 ± 8.3 (n = 12) mm^2
- Mean Wheal Area ± STD, Vehicle ([1]; Tables 17A-B, column head '0.1' (no unit), 1 hour prior): 56.2 ± 11.3 (n = 5) mm^2
- Mean Wheal Area ± STD, Vehicle ([1]; Tables 17A-B, column head '1' (no unit), 0.5 hr prior): 61.7 ± 13.5 (n = 19) mm^2
- Mean Wheal Area ± STD, Vehicle ([1]; Tables 17A-B, column head '1' (no unit), 1 hour prior): 50.6 ± 7.4 (n = 5) mm^2
- Net wheal area, effect of peptide (alone) ([1]; intradermal 1 mg/ml, Animal A, 0.5 hour): 3.29 mm2
- Net wheal area, effect of peptide (alone) ([1]; intradermal 1 mg/ml, Animal B, 1 hour): 7.0 mm2
- Net wheal area, effect of peptide (alone) ([1]; intradermal 1 mg/ml, Animal C, 2 hours): 16.5 mm2
- Net wheal area, effect of peptide (alone) ([1]; intradermal 10 mg/ml, Animal A, 0.5 hour): −1.68 mm2
- Net wheal area, effect of peptide (alone) ([1]; intradermal 10 mg/ml, Animal B, 1 hour): −9.9 mm2
- Net wheal area, effect of peptide (alone) ([1]; intradermal 10 mg/ml, Animal C, 2 hours): −3.0 mm2
- Mean Wheal Area ± STD, Vehicle [1, 7]: 60.7 ± 19.3 (n = 7) mm^2
- Mean Wheal Area ± STD, Vehicle [1, 8]: 52.3 ± 11.1 (n = 5) mm^2
- Wheal area, saline injection (control) ([1]; intradermal peptide 1 mg/ml, animal a, 0.5 hour after injection): 65.78^a mm2
- Wheal area, saline injection (control) ([1]; intradermal peptide 1 mg/ml, animal b, 1 hour): 119.2^b mm2
- Wheal area, saline injection (control) ([1]; intradermal peptide 1 mg/ml, animal c, 2 hours): 77.31^c mm2
- Mean Wheal Area ± STD, Vehicle [1, 9]: 54.8 ± 11 (n = 5) mm^2
- Mean Wheal Area ± STD, Vehicle [1, 10]: 50.6 ± 7.411 (n = 5) mm^2
- Wheal area, saline injection (control) ([1]; intradermal peptide 10 mg/ml, animal a, 0.5 hour): 60.81^a mm2
- Wheal area, saline injection (control) ([1]; intradermal peptide 10 mg/ml, animal b, 1 hour): 102.3^b mm2
- Wheal area, saline injection (control) ([1]; intradermal peptide 10 mg/ml, animal c, 2 hours): 57.81^c mm2
- effect of intradermal injection of peptide alone on the cutaneous allergic reactions ([1]; without compound 48/80): hardly any stimulatory effect; also recorded: no cutaneous allergic reaction
- stimulatory effect of topical peptide by itself on the cutaneous allergic reactions ([5]; peptide and saline injection, without compound 48/80): no stimulatory effect
- Net wheal area, effect of peptide (alone) ([5]; topical 1 mg/ml, Animal A, 1 hour after application): −8.8 mm2
- Net wheal area, effect of peptide (alone) ([5]; topical 1 mg/ml, Animal B (footnote: 1 hour after application)): −5.5 mm2
- Net wheal area, effect of peptide (alone) ([5]; topical 10 mg/ml, Animal A, 1 hour after application): −8.3 mm2
- Net wheal area, effect of peptide (alone) ([5]; topical 10 mg/ml, Animal B (footnote: 1 hour after application)): −6.0 mm2
- Wheal area, saline injection (control) ([5]; topical peptide 1 mg/ml, animal a, skin test 1 hour after application): 84.64^a mm^2
- Wheal area, saline injection (control) ([5]; topical peptide 1 mg/ml, animal b, 2 hours after application): 66.91^b mm^2
- Wheal area, saline injection (control) ([5]; topical peptide 10 mg/ml, animal a, 1 hour after application): 85.24^a mm^2
- Wheal area, saline injection (control) ([5]; topical peptide 10 mg/ml, animal b, 2 hours after application): 66.40^b mm^2
- Average Score, Erythema ([6]; no compound 48/80): 0.6
- Average Score, Lid edema ([6]; no compound 48/80): 0
- Average Score, Tearing ([6]; no compound 48/80): 0.2
- Average Score, Total score ([6]; no compound 48/80): 0.8
- Average Score, Chemosis ([6]; no compound 48/80 (Table 19 group 2)): 0
- IC50, compound 48/80 induced histamine secretion [2]: 400 µg/mL
- Secretagogue (histamine secretion following incubation of mast cell with different concentrations of each peptide) ([3]; Table 1, peptide alone): −
